Data taken from patent US9187424B1, “Aryl dihydropyridinones and piperidinone MGAT2 inhibitors” (Bristol-Myers Squibb Company, priority 2011, dated 2015).

Tests used:
Human MGAT-2 [1] = biological target: T1, Human MGAT-2 (Homo sapiens (Human), UniProt Q3SYC2); experiment: MGAT SPA Assay; format: biochemical; conditions: membranes from Sf9 cells expressing recombinant human MGAT2; 2-monooleoylglycerol and [3H]-oleoyl-CoA;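 note: inhibition scaled between DMSO vehicle as full MGAT2 activity and membranes of uninfected Sf9 cells as blank, IC50 fitted by logistic curve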
T1 sequence (Q3SYC2 whole entry): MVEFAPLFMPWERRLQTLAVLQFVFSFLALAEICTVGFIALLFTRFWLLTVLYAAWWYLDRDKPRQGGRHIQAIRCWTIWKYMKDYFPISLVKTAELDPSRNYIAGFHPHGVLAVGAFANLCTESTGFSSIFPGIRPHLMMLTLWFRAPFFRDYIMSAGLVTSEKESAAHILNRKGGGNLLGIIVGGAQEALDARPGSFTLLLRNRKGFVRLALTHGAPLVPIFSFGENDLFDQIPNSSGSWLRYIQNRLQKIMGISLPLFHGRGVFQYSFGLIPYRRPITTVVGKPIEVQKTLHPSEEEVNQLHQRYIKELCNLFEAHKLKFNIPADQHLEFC

Human MGAT-2 [2] = biological target: T1, Human MGAT-2; experiment: MGAT LCMS Assay (human MGAT-2); format: biochemical; conditions: human MGAT-2 membranes expressed in Sf9 cells; 2-oleoylglycerol and oleoyl-Coenzyme A; read-out: h-MGAT2 IC50 (nM) LCMS Assay;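 note: diolein product quantified by LC/MS with positive APCI, expressed as peak area ratio versus an internal standard, and this ratio used to derive IC50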

| Compound | IC50 (Human MGAT-2 [1]) | IC50 (Human MGAT-2 [2]) |
| --- | --- | --- |
| COc1ccc(C2=C[C@](c3ccc(OCCCC(F)(F)F)cc3)(C(F)(F)F)NC(=O)C2(F)C#N)cc1 (single isomer, unassigned) [Example 15-1, 3-Fluoro-4-(4-methoxyphenyl)-2-oxo-6-(4-(4,4,4-trifluorobutoxyl)phenyl)-6-(trifluoromethyl)-1,2,3,6-tetrahydropyridine-3-carbonitrile] | 3310 nM | 12 nM |
| COc1ccc(NC(=O)C2C(=O)N[C@@](c3ccc(OCCCC(F)(F)F)cc3)(C(F)(F)F)CC2c2ccc(C)cc2)cc1 (single isomer, unassigned) [Example 16-1, N-(4-Methoxyphenyl)-2-oxo-4-p-tolyl-6-(4-(4,4,4-trifluorobutoxyl)phenyl)-6-(trifluoromethyl)piperidine-3-carboxamide] | 25 nM | 7 nM |
| COc1ccc(NC(=O)C2C(=O)N[C@@](c3ccc(OCCCC(F)(F)F)cc3)(C(F)(F)F)CC2c2ccc(C)cc2)cc1 (single isomer, unassigned) [Example 16-2, N-(4-Methoxyphenyl)-2-oxo-4-p-tolyl-6-(4-(4,4,4-trifluorobutoxyl)phenyl)-6-(trifluoromethyl)piperidine-3-carboxamide] | 8430 nM | 416 nM |
| Cc1ccc(C2=C(C#N)C(=O)NC(c3ccc(Br)cc3)(C(F)(F)F)C2)cc1 (centres unmarked) [Example 3, 6-(4-Bromophenyl)-2-oxo-4-p-tolyl-6-(trifluoromethyl)-1,2,5,6-tetrahydropyridine-3-carbonitrile] | 1800 nM |  |
| Cc1ccc(C2=C(C#N)C(=O)NC(c3ccc(O)cc3)(C(F)(F)F)C2)cc1 (centres unmarked) [Example 4, 6-(4-Hydroxyphenyl)-2-oxo-4-p-tolyl-6-(trifluoromethyl)-1,2,5,6-tetrahydro-pyridine-3-carbonitrile] | 5870 nM |  |
| CCOc1ccc(-c2ccc(C3(C(F)(F)F)CC(c4ccc(C)cc4)=C(C#N)C(=O)N3)cc2)cn1 (centres unmarked) [Example 7, 6-(4-(6-Ethoxypyridin-3-yl)phenyl)-2-oxo-4-p-tolyl-6-(trifluoromethyl)-1,2,5,6-tetrahydropyridine-3-carbonitrile] | 818 nM |  |
| Cc1ccc(C2=C(c3nnc(C(F)(F)F)o3)C(=O)NC(c3ccc(OCCCC(F)(F)F)cc3)(C(F)(F)F)C2)cc1 (centres unmarked) [Example 10, 4-p-Tolyl-6-(4-(4,4,4-trifluorobutoxyl)phenyl)-6-(trifluoromethyl)-3-(5-(trifluoromethyl)-1,3,4-oxadiazol-2-yl)-5,6-dihydropyridin-2(1H)-one] | 2720 nM | 138 nM |
| Cc1ccc(C2=C(C(=O)Nc3ccc(OC(F)(F)F)cc3)C(=O)NC(C)(c3ccc(OCCCC(F)(F)F)cc3)C2)cc1 (centres unmarked) [Example 11, 6-Methyl-2-oxo-4-p-tolyl-6-(4-(4,4,4-trifluorobutoxyl)phenyl)-N-(4-(trifluoromethoxy)-phenyl)-1,2,5,6-tetrahydropyridine-3-carboxamide] | 48 nM | 13 nM |
| Cc1ccc(C2=C([N+](=O)[O-])C(=O)NC(c3ccc(OCCCC(F)(F)F)cc3)(C(F)(F)F)C2)cc1 (centres unmarked) [Example 13, 3-Nitro-4-p-tolyl-6-(4-(4,4,4-trifluorobutoxyl)phenyl)-6-(trifluoromethyl)-5,6-dihydropyridin-2(1H)-one] | 3330 nM | 35 nM |
| CC1(c2ccc(N3CCOCC3)cc2)CC(c2ccc(N3CCOCC3)cc2)=C(C#N)C(=O)N1 (centres unmarked) [Example 17] | 1930 nM |  |
| Cc1ccc(C2=C(C#N)C(=O)NC(C)(c3ccc(C)c(C)c3)C2)cc1C (centres unmarked) [Example 18] | 5760 nM |  |
| CCOc1ccc(C2=C(C#N)C(=O)NC(C)(c3ccc(OCC)cc3)C2)cc1 (centres unmarked) [Example 19] | 2900 nM |  |
| CC(C)(C)c1ccc(C2=C(C#N)C(=O)NC(C)(c3ccc(C(C)(C)C)cc3)C2)cc1 (centres unmarked) [Example 20] | 3460 nM |  |
| Cc1ccc(C2=C(c3nnn[nH]3)C(=O)NC(C)(c3ccc(C)cc3)C2)cc1 (centres unmarked) [Example 21] | 913 nM |  |
| Cc1ccc(C2=C(C#N)C(=O)NC(C)(c3ccccc3)C2)cc1 (centres unmarked) [Example 23] | 1290 nM |  |
| Cc1ccc(C2=C(C#N)C(=O)NC(c3ccc(Cl)cc3)(C(F)(F)F)C2)cc1 (centres unmarked) [Example 24] | 1730 nM |  |
| Cc1ccc(C2=C(C#N)C(=O)NC(c3cccc(F)c3)(C(F)(F)F)C2)cc1 (centres unmarked) [Example 25] | 4570 nM |  |
| Cc1ccc(C2=C(C#N)C(=O)NC(c3ccc(F)c(F)c3)(C(F)(F)F)C2)cc1 (centres unmarked) [Example 26] | 6430 nM |  |
| Cc1ccc(C2=C(C#N)C(=O)NC(c3ccc(F)cc3)(C(F)(F)F)C2)cc1 (centres unmarked) [Example 27] | 2520 nM |  |
| Cc1ccc(C2=C(C#N)C(=O)NC(c3ccc(N(C)C)cc3)(C(F)(F)F)C2)cc1 (centres unmarked) [Example 31] | 1510 nM |  |
| Cc1ccc(C2=C(C#N)C(=O)NC(c3cccc(Br)c3)(C(F)(F)F)C2)cc1 (centres unmarked) [Example 32] | 9960 nM |  |
| Cc1ccc(C2=C(C#N)C(=O)NC(c3ccc(OCCOC(C)(C)C)cc3)(C(F)(F)F)C2)cc1 (centres unmarked) [Example 34] | 656 nM | 126 nM |
| Cc1ccc(C2=C(C#N)C(=O)NC(c3ccc(OCCC4CCCC4)cc3)(C(F)(F)F)C2)cc1 (centres unmarked) [Example 36] | 396 nM | 57 nM |
| COc1ccc(C2(C(F)(F)F)CC(c3ccc(C)cc3)=C(c3nnn[nH]3)C(=O)N2)cc1 (centres unmarked) [Example 38] | 2140 nM |  |
| COc1ccc(C2(C(F)(F)F)CC(c3ccc(C)cc3)=C(C(=O)Nc3ccc(F)cc3)C(=O)N2)cc1 (centres unmarked) [Example 41] | 170 nM | 15 nM |
| Cc1ccc(C2=C(C#N)C(=O)NC(c3ccc(Oc4ccccc4)nc3)(C(F)(F)F)C2)cc1 (centres unmarked) [Example 44] | 1460 nM |  |
| Cc1ccc(C2=C(C#N)C(=O)NC(c3ccc(Oc4ncccn4)cc3)(C(F)(F)F)C2)cc1 (centres unmarked) [Example 46] | 871 nM |  |

| Compound | IC50 (Human MGAT-2 [1]) | IC50 (Human MGAT-2 [2]) |
| --- | --- | --- |
| Cc1ccc(C2=C(C#N)C(=O)NC(c3ccc(OCc4ccccc4)cc3)(C(F)(F)F)C2)cc1 (centres unmarked) [Example 47] | 756 nM |  |
| Cc1ccc(C2=C(C(=O)Nc3ccc(F)cc3)C(=O)NC(c3ccc(Oc4ccccc4)cc3)(C(F)(F)F)C2)cc1 (centres unmarked) [Example 48] | 226 nM | 7 nM |
| Cc1ccc(C2=C(C(=O)Nc3ccc(F)cc3)C(=O)NC(c3ccc(Oc4ccncn4)cc3)(C(F)(F)F)C2)cc1 (centres unmarked) [Example 49] | 127 nM | 64 nM |
| Cc1ccc(C2=C(C(=O)Nc3ccc(F)cc3)C(=O)NC(c3ccc(-c4cnccn4)cc3)(C(F)(F)F)C2)cc1 (centres unmarked) [Example 50] | 242 nM | 95 nM |
| CCCCCc1ccc(C2(C(F)(F)F)CC(c3ccc(C)cc3)=C(C(=O)Nc3ccc(F)cc3)C(=O)N2)cc1 (centres unmarked) [Example 51] | 63 nM | 13 nM |
| Cc1ccc(C2=C(C(=O)Nc3ccc(F)cc3)C(=O)NC(c3ccc(Oc4ncccn4)cc3)(C(F)(F)F)C2)cc1 (centres unmarked) [Example 52] | 477 nM | 99 nM |
| Cc1ccc(C2=C(C(=O)Nc3ccc(F)cc3)C(=O)NC(c3ccc(OCc4ccccc4)cc3)(C(F)(F)F)C2)cc1 (centres unmarked) [Example 54] | 258 nM | 20 nM |
| CCCCCNC(=O)C1=C(c2ccc(C)cc2)CC(c2ccc(OCCCC(F)(F)F)cc2)(C(F)(F)F)NC1=O (centres unmarked) [Example 55] | 846 nM | 20 nM |
| Cc1ccc(C2=C(C(=O)NCc3ccccc3)C(=O)NC(c3ccc(OCCCC(F)(F)F)cc3)(C(F)(F)F)C2)cc1 (centres unmarked) [Example 56] | 6550 nM |  |
| Cc1ccc(C2=C(C(=O)Nc3ccccc3Cl)C(=O)NC(c3ccc(OCCCC(F)(F)F)cc3)(C(F)(F)F)C2)cc1 (centres unmarked) [Example 60] | 441 nM | 12 nM |
| Cc1ccc(C2=C(C(=O)Nc3cccc(Cl)c3)C(=O)NC(c3ccc(OCCCC(F)(F)F)cc3)(C(F)(F)F)C2)cc1 (centres unmarked) [Example 61] | 709 nM |  |
| Cc1ccc(C2=C(C(=O)Nc3ccc(Cl)cc3)C(=O)NC(c3ccc(OCCCC(F)(F)F)cc3)(C(F)(F)F)C2)cc1 (centres unmarked) [Example 62] | 156 nM | 24 nM |
| COc1cccc(C2=C(C#N)C(=O)NC(c3ccc(OCCCC(F)(F)F)cc3)(C(F)(F)F)C2)c1 (centres unmarked) [Example 64] | 761 nM | 280 nM |
| N#CC1=C(c2cccc(Cl)c2)CC(c2ccc(OCCCC(F)(F)F)cc2)(C(F)(F)F)NC1=O (centres unmarked) [Example 68] | 7520 nM | 1280 nM |
| N#CC1=C(c2cccc(C#N)c2)CC(c2ccc(OCCCC(F)(F)F)cc2)(C(F)(F)F)NC1=O (centres unmarked) [Example 69] | 9230 nM | 983 nM |
| Cc1ccc(C2=CC(=O)NC(c3ccc(OCCCC(F)(F)F)cc3)(C(F)(F)F)C2)cc1 (centres unmarked) [Example 70] | 3400 nM |  |
| N#CC1=C(c2ccc3ccccc3c2)CC(c2ccc(OCCCC(F)(F)F)cc2)(C(F)(F)F)NC1=O (centres unmarked) [Example 73] | 684 nM | 15 nM |
| N#CC1=C(c2ccc(C(F)(F)F)cc2)CC(c2ccc(OCCCC(F)(F)F)cc2)(C(F)(F)F)NC1=O (centres unmarked) [Example 75] | 873 nM | 209 nM |
| COc1ccc(C2=C(C#N)C(=O)NC(c3ccc(OCCCC(F)(F)F)cc3)(C(F)(F)F)C2)c(F)c1 (centres unmarked) [Example 81] | 55 nM | 4 nM |
| Cc1ccc(NC(=O)C2=C(c3ccc(C)cc3)CC(c3ccc(OCCCC(F)(F)F)cc3)(C(F)(F)F)NC2=O)cc1 (centres unmarked) [Example 82] | 133 nM | 2 nM |
| COc1ccc(NC(=O)C2=C(c3ccc(C)cc3)CC(c3ccc(OCCCC(F)(F)F)cc3)(C(F)(F)F)NC2=O)cc1F (centres unmarked) [Example 84] | 115 nM | 2 nM |
| Cc1ccc(C2=C(C(=O)Nc3ccc(C)c(F)c3)C(=O)NC(c3ccc(OCCCC(F)(F)F)cc3)(C(F)(F)F)C2)cc1 (centres unmarked) [Example 85] | 1460 nM | 7 nM |
| Cc1ccc(C2=C(C(=O)Nc3ccc(C(F)(F)F)cc3)C(=O)NC(c3ccc(OCCCC(F)(F)F)cc3)(C(F)(F)F)C2)cc1 (centres unmarked) [Example 86] | 201 nM | 1 nM |
| COc1ccc(NC(=O)C2=C(c3ccc(C)cc3)CC(c3ccc(OCC(F)(F)F)cc3)(C(F)(F)F)NC2=O)cc1 (centres unmarked) [Example 88] | 28 nM | 5 nM |
| Cc1ccc(C2=C(C#N)C(=O)NC(c3ccc(OCC(F)(F)F)cc3)(C(F)(F)F)C2)cc1 (centres unmarked) [Example 89] | 731 nM | 20 nM |
